# Values of other authors in patent US9291622B2, “Complement assays and uses thereof” (Apellis Pharmaceuticals, Inc., priority 2009, dated 2016).
# [ ]: non-standard residue; d: D form. Trp(5-F) = N[C@@H](Cc1c[nH]c2ccc(F)cc12)C(=O)O; Trp(5-Me) = Cc1ccc2[nH]cc(C[C@H](N)C(=O)O)c2c1; Trp(6-F) = N[C@@H](Cc1c[nH]c2cc(F)ccc12)C(=O)O; Bpa = N[C@@H](Cc1ccc(C(=O)c2ccccc2)cc1)C(=O)O; 1Nal = N[C@@H](Cc1cccc2ccccc12)C(=O)O; 2Nal = N[C@@H](Cc1ccc2ccccc2c1)C(=O)O; Igl = N[C@H](C(=O)O)C1Cc2ccccc2C1; Dht = dihydrotryptophan
# System: complement activation
# Settings: fold activity relative to compstatin (H-ICVVQDWGHHRCT-CONH2)
row,Substance,Activity over compstatin
1,Ac-ICV(1-Nal)QDWGAHRCT-COOH (Ac-ICV[1Nal]QDWGAHRCT-OH; cysteine pairing not given here) [Ac V4(1-Nal)/H9A —OH],30 × more
2,Ac-ICV(2-Igl)QDWGAHRCT-CONH2 (Ac-ICV[Igl]QDWGAHRCT-NH2; cysteine pairing not given here) [Ac-V42Igl/H9A],39 × more
3,Ac-ICV(2-Igl)QDWGAHRCT-COOH (Ac-ICV[Igl]QDWGAHRCT-OH; cysteine pairing not given here) [Ac-V42Igl/H9A —OH],37 × more
4,Ac-ICV(2-Nal)QDWGAHRCT-CONH2 (Ac-ICV[2Nal]QDWGAHRCT-NH2; cysteine pairing not given here) [Ac-V4(2-Nal)/H9A],99 × more
5,Ac-ICV(2-Nal)QDWGAHRCT-COOH (Ac-ICV[2Nal]QDWGAHRCT-OH; cysteine pairing not given here) [Ac V4(2-Nal)/H9A —OH],38 × more
6,Ac-ICV(5-methyl-W)QDWGAHRCT-CONH2 (Ac-ICV[Trp(5-Me)]QDWGAHRCT-NH2; cysteine pairing not given here) [Ac-V4(5-MeW)/H9A],67 × more
7,Ac-ICV(5fW)QD(5fW)GAHRCT-CONH2 (Ac-ICV[Trp(5-F)]QD[Trp(5-F)]GAHRCT-NH2; cysteine pairing not given here) [Ac-V4(5fW)/W7(5fW)/H9A],161 × more
8,Ac-ICV(5fW)QDWGAHRCT-CONH2 (Ac-ICV[Trp(5-F)]QDWGAHRCT-NH2; cysteine pairing not given here) [Ac-V4(5fW)/H9A],31 × more
9,Ac-ICV(Bpa)QDWGAHRCT-CONH2 (Ac-ICV[Bpa]QDWGAHRCT-NH2; cysteine pairing not given here) [Ac-V4(Bpa)/H9A],86 × more
10,Ac-ICV(Bpa)QDWGAHRCT-COOH (Ac-ICV[Bpa]QDWGAHRCT-OH; cysteine pairing not given here) [Ac-V4(Bpa)/H9A —OH],49 × more
11,Ac-ICVDhtQDWGAHRCT-COOH (Ac-ICV[Dht]QDWGAHRCT-OH; cysteine pairing not given here) [Ac-V4Dht/H9A —OH],5 × more
12,Ac-ICVVQDWGHHRCT-CONH2 [Ac-compstatin],3 × more
13,Ac-ICVWQD(5fW)GAHRCT-CONH2 (Ac-ICVWQD[Trp(5-F)]GAHRCT-NH2; cysteine pairing not given here) [Ac-V4W/W7(5fW)/H9A],121 × more
14,Ac-ICVWQDWGAHRCT-CONH2 (Ac-ICVWQDWGAHRCT-NH2; cysteine pairing not given here) [Ac-V4W/H9A],45 × more
15,Ac-ICVWQDWGAHRCdT-COOH [Ac-V4W/H9A/T13dT —OH],55 × more
16,Ac-ICVYQDWGAHRCT-CONH2 [Ac-V4Y/H9A],14 × more
17,H-GICV(6fW)QD(6fW)GAHRCTN-COOH (H-GICV[Trp(6-F)]QD[Trp(6-F)]GAHRCTN-OH; cysteine pairing not given here) [+G/V4(6fW)/W7(6fW)H9A +N —OH],126 × more
